{"source": "patent US6486198B1", "about": "“Compounds and methods for the treatment of post traumatic stress disorder” (priority 1999, dated 2002)", "system": "DSM-IV PTSD criterion B symptoms of nightmares and intrusions (intrusive recollections/flashbacks)", "assay": "Naturalistic add-on/monotherapy topiramate trial in chronic PTSD patients; patient self-report of partial/full response of nightmares and intrusions (LOCF)", "format": "in vivo, human", "text": "Thirty five (35) patients meeting DSM-IV criteria for chronic post-traumatic stress disorder (PTSD) were selected for a study of the effects of topiramate administration. […] The group with hallucinatory PTSD experienced auditory and/or visual hallucinations containing content specifically associated with identified traumatic events. Whether these were PTSD “flashbacks” or psychotic experiences were at times difficult to ascertain due to fluctuations in reality testing the hallucinations. For this reason, prior to being screened for PTSD, some patients had received psychiatric diagnoses of psychotic disorders despite meeting full diagnostic criteria for PTSD.\nTopiramate was added naturalistically to existing pharmacotherapy (see Table 1 for concomitant medications at start of trial), starting at 25 mglday and increasing whenever possible by 25 to 50 mg/day every 3 to 4 days to clinical response. Target symptoms were DSM-IV PTSD criterion B symptoms of nightmares (N =24) and intrusions (intrusive recollections/flashbacks, N=35) involving re-experiencing of traumas. Definitions of improvement, as assessed from patient self-report, included “partial response” as “definite reduction in intensity and frequency of nightmares or intrusions”, and “full response” as “complete cessation of nightmares and intrusions for a sustained period”. Following the seminal observations, in order to systematically identify responsive symptoms, the next 17 patients completed a self-report scale, the PTSD Checklist—Civilian Version (PCL-C)15, at baseline and at 4 weeks after starting topiramate. The patients were instructed to complete the PCL-C for experiences corresponding to traumas consistent with DSM-IV criterion A for PTSD. Paired ttest scores for the PCL-C were calculated with Jandel SigmaStat® v. 2.0.\nResponse assessment, summarized in Table 4, used the Last Observation Carried Forward (LOCF) method, which includes all patients who entered the trial and their last reported condition while under active treatment. Overall, topiramate suppressed nightmares in 79% of patients ([…]; 5/28 partially), and intrusions in 86% (22/35 fully; 8/35 partially). Globally (i.e., in terms of suppression of both nightmares and intrusions), 22 patients (63%) reported a full response and 8 patients (23%) a partial response. Five patients discontinued without response, 1 at 5 days, and the remaining 4 after 4 weeks. The non-hallucinatory subgroup achieved a higher response rate (full: 79%; full/partial: 89%). All full responses occurred in the non-hallucinatory subgroup. Benefit usually occurred within 2 to 3 days of reaching an effective dose. A full response to topiramate was reported for 10 patients within 1 week of treatment, and for 3 additional patients by the third week of treatment.", "key": {"[1]": {"conditions": "All Patients (N = 35), both nightmares and intrusions"}, "[2]": {"conditions": "All Patients (N = 35), both nightmares and intrusions, listed as topiramate"}, "[3]": {"conditions": "All Patients (N = 35), either nightmares or intrusions"}, "[4]": {"conditions": "All Patients (N = 35), either nightmares or intrusions, listed as topiramate"}, "[5]": {"conditions": "All Patients (N = 35), listed as topiramate"}, "[6]": {"conditions": "All Patients (N = 35), partial + full response"}, "[7]": {"conditions": "All Patients (N = 35), partial + full response, listed as topiramate"}, "[8]": {"conditions": "Non-Hallucinatory PTSD, Bipolar Disorder (N = 8)"}, "[9]": {"conditions": "Non-Hallucinatory PTSD, Bipolar Disorder (N = 8), listed as topiramate"}, "[10]": {"conditions": "Non-Hallucinatory PTSD, Non-Bipolar Disorder (N = 20)"}}, "data": [{"smiles": "CC1(C)O[C@@H]2[C@@H](CO[C@@]3(COS(N)(=O)=O)OC(C)(C)O[C@@H]23)O1", "note": "[Topiramate, 2,3:4,5-bis-O-(1-methylethylidene)-β-D-fructopyranose sulfamate]", "values": [{"measurement": "Share of partial responders with response at a dosage of 75 mg/day or less", "setting": "75 mg/day or less", "result": 95, "unit": "%"}, {"measurement": "Share of full responders with response at a dosage of 100 mg/day or less", "setting": "100 mg/day or less", "result": 91, "unit": "%"}, {"measurement": "Patients discontinued without response", "setting": "1 at 5 days, remaining 4 after 4 weeks", "result": "Five"}, {"measurement": "Dosage of topiramate, Full response, mean ± SD", "setting": "All Patients (N = 35)", "result": 78.6, "unit": "mg/day"}, {"measurement": "Dosage of topiramate, Full response, median", "setting": "All Patients (N = 35)", "result": "(50.0) mg/day"}, {"measurement": "Dosage of topiramate, Partial response (threshold dosage), mean ± SD", "setting": "All Patients (N = 35)", "result": 41.7, "unit": "mg/day"}, {"measurement": "Dosage of topiramate, Partial response, median", "setting": "All Patients (N = 35)", "result": "(25.0) mg/day"}, {"measurement": "Suppression of intrusions, Full (number of patients)", "setting": "All Patients (N = 35)", "result": 22}, {"measurement": "Suppression of intrusions, Partial (number of patients)", "setting": "All Patients (N = 35)", "result": 8}, {"measurement": "Suppression of nightmares, Full (number of patients)", "setting": "All Patients (N = 35)", "result": 14}, {"measurement": "Suppression of nightmares, Partial (number of patients)", "setting": "All Patients (N = 35)", "result": 5}, {"measurement": "Time to onset of response, Full, mean ± SD", "setting": "[1]", "result": 35.3, "unit": "days"}, {"measurement": "Time to onset of response, Full, median", "setting": "[1]", "result": "(8.0) days"}, {"measurement": "Time to onset of response, Full, mean ± SD", "setting": "[2]", "result": "35 ± 48.6", "unit": "days"}, {"measurement": "Time to onset of response, Full, median", "setting": "[2]", "result": 8.0, "unit": "days"}, {"measurement": "Time to onset of response, Partial, mean ± SD", "setting": "[3]", "result": 10.9, "unit": "days"}, {"measurement": "Time to onset of response, Partial, median", "setting": "[3]", "result": "(4.0) days"}, {"measurement": "Time to onset of response, Partial, mean ± SD", "setting": "[4]", "result": "11 ± 13.1", "unit": "days"}, {"measurement": "Time to onset of response, Partial, median", "setting": "[4]", "result": 4.0, "unit": "days"}, {"measurement": "Dosage of topiramate, Full response, mean ± SD", "setting": "[5]", "result": "79 ± 113.8", "unit": "mg/day"}, {"measurement": "Dosage of topiramate, Full response, median", "setting": "[5]", "result": 50.0, "unit": "mg/day"}, {"measurement": "Dosage of topiramate, Partial response (threshold dosage), mean ± SD", "setting": "[5]", "result": "42 ± 31.7", "unit": "mg/day"}, {"measurement": "Dosage of topiramate, Partial response, median", "setting": "[5]", "result": 25.0, "unit": "mg/day"}, {"measurement": "Suppression of intrusions (N = 35)", "setting": "[6]", "result": 86, "unit": "%"}, {"measurement": "Suppression of nightmares (N = 24)", "setting": "[6]", "result": 79, "unit": "%"}, {"measurement": "Suppression of intrusions (N = 35)", "setting": "[7]", "result": 86, "unit": "%"}, {"measurement": "Suppression of nightmares (N = 24)", "setting": "[7]", "result": 79, "unit": "%"}, {"measurement": "Dosage of topiramate, Full response, mean ± SD", "setting": "[8]", "result": 154.2, "unit": "mg/day"}, {"measurement": "Dosage of topiramate, Full response, median", "setting": "[8]", "result": "(37.5) mg/day"}, {"measurement": "Dosage of topiramate, Partial response (threshold dosage), mean ± SD", "setting": "[8]", "result": "58.3 ± 14.4", "unit": "mg/day"}, {"measurement": "Dosage of topiramate, Partial response, median", "setting": "[8]", "result": "(50.0) mg/day"}, {"measurement": "Suppression of intrusions (N = 35)", "setting": "[8]", "result": "88% (7/8)"}, {"measurement": "Suppression of intrusions, Full (number of patients)", "setting": "[8]", "result": 6}, {"measurement": "Suppression of intrusions, Partial (number of patients)", "setting": "[8]", "result": 1}, {"measurement": "Suppression of nightmares (N = 24)", "setting": "[8]", "result": "83% (5/6)"}, {"measurement": "Suppression of nightmares, Full (number of patients)", "setting": "[8]", "result": 4}, {"measurement": "Suppression of nightmares, Partial (number of patients)", "setting": "[8]", "result": 1}, {"measurement": "Time to onset of response, Full, mean ± SD", "setting": "[8]", "result": "43.3 ± 62.5", "unit": "days"}, {"measurement": "Time to onset of response, Full, median", "setting": "[8]", "result": "(6.0) days"}, {"measurement": "Time to onset of response, Partial, mean ± SD", "setting": "[8]", "result": "17.3 ± 13.5", "unit": "days"}, {"measurement": "Time to onset of response, Partial, median", "setting": "[8]", "result": "(17.0) days"}, {"measurement": "Dosage of topiramate, Full response, mean ± SD", "setting": "[9]", "result": "154 ± 200.9", "unit": "mg/day"}, {"measurement": "Dosage of topiramate, Full response, median", "setting": "[9]", "result": 37.5, "unit": "mg/day"}, {"measurement": "Dosage of topiramate, Partial response (threshold dosage), mean ± SD", "setting": "[9]", "result": "58 ± 14.4", "unit": "mg/day"}, {"measurement": "Dosage of topiramate, Partial response, median", "setting": "[9]", "result": 50.0, "unit": "mg/day"}, {"measurement": "Dosage of topiramate, Full response, mean ± SD", "setting": "[10]", "result": 48.3, "unit": "mg/day"}, {"measurement": "Dosage of topiramate, Full response, median", "setting": "[10]", "result": "(50.0) mg/day"}, {"measurement": "Dosage of topiramate, Partial response (threshold dosage), mean ± SD", "setting": "[10]", "result": 26.9, "unit": "mg/day"}, {"measurement": "Dosage of topiramate, Partial response, median", "setting": "[10]", "result": "(25.0) mg/day"}, {"measurement": "Suppression of intrusions (N = 35)", "setting": "[10]", "result": 90, "unit": "%"}, {"measurement": "Suppression of intrusions, Full (number of patients)", "setting": "[10]", "result": 16}, {"measurement": "Suppression of intrusions, Partial (number of patients)", "setting": "[10]", "result": 2}]}]}
